Source: the supplement of paper PMC11451515

System: P12-Ichikawa
Assay: cell viability relative to DMSO control; higher = less cytotoxic
Settings: 48 h
Method in brief: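 Viability is a per-plate percentage relative to DMSO wells, with cell-free wells as background. CellTiter-Glo One luminescence was read after 48 h at 37°C on 1536-well plates (5 μl) of NOMO1 or SEM (500 cells/well) or P12-Ichikawa (1000 cells/well) leukemia cells. The cells had been adapted for at least four passages in each medium and pin-dosed with library compounds in DMSO from 47 μM to 0.79 nM in 11 threefold steps.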

[1] = HPLM + 10% dialyzed FBS, 0.000781 µM
[2] = HPLM + 10% dialyzed FBS, 0.00234 µM
[3] = HPLM + 10% dialyzed FBS, 0.00702 µM
[4] = HPLM + 10% dialyzed FBS, 0.0211 µM
[5] = HPLM + 10% dialyzed FBS, 0.0632 µM
[6] = HPLM + 10% dialyzed FBS, 0.19 µM
[7] = HPLM + 10% dialyzed FBS, 0.569 µM
[8] = HPLM + 10% dialyzed FBS, 1.71 µM
[9] = HPLM + 10% dialyzed FBS, 5.12 µM
[10] = HPLM + 10% dialyzed FBS, 15.4 µM
[11] = HPLM + 10% dialyzed FBS, 46.1 µM
[12] = RPMI 5 mM glucose + 10% FBS, 0.000781 µM
[13] = RPMI 5 mM glucose + 10% FBS, 0.00234 µM
[14] = RPMI 5 mM glucose + 10% FBS, 0.00702 µM
[15] = RPMI 5 mM glucose + 10% FBS, 0.0211 µM
[16] = RPMI 5 mM glucose + 10% FBS, 0.0632 µM
[17] = RPMI 5 mM glucose + 10% FBS, 0.19 µM
[18] = RPMI 5 mM glucose + 10% FBS, 0.569 µM
[19] = RPMI 5 mM glucose + 10% FBS, 1.71 µM
[20] = RPMI 5 mM glucose + 10% FBS, 5.12 µM
[21] = RPMI 5 mM glucose + 10% FBS, 15.4 µM
[22] = RPMI 5 mM glucose + 10% FBS, 46.1 µM
[23] = RPMI 5 mM glucose + 10% dialyzed FBS, 0.000781 µM
[24] = RPMI 5 mM glucose + 10% dialyzed FBS, 0.00234 µM
[25] = RPMI 5 mM glucose + 10% dialyzed FBS, 0.00702 µM
[26] = RPMI 5 mM glucose + 10% dialyzed FBS, 0.0211 µM
[27] = RPMI 5 mM glucose + 10% dialyzed FBS, 0.0632 µM
[28] = RPMI 5 mM glucose + 10% dialyzed FBS, 0.19 µM
[29] = RPMI 5 mM glucose + 10% dialyzed FBS, 0.569 µM
[30] = RPMI 5 mM glucose + 10% dialyzed FBS, 1.71 µM
[31] = RPMI 5 mM glucose + 10% dialyzed FBS, 5.12 µM
[32] = RPMI 5 mM glucose + 10% dialyzed FBS, 15.4 µM
[33] = RPMI 5 mM glucose + 10% dialyzed FBS, 46.1 µM

Row | SMILES | cell viability [1] [%] | cell viability [2] [%] | cell viability [3] [%] | cell viability [4] [%] | cell viability [5] [%] | cell viability [6] [%] | cell viability [7] [%] | cell viability [8] [%] | cell viability [9] [%] | cell viability [10] [%] | cell viability [11] [%] | cell viability [12] [%] | cell viability [13] [%] | cell viability [14] [%] | cell viability [15] [%] | cell viability [16] [%] | cell viability [17] [%] | cell viability [18] [%] | cell viability [19] [%] | cell viability [20] [%] | cell viability [21] [%] | cell viability [22] [%] | cell viability [23] [%] | cell viability [24] [%] | cell viability [25] [%] | cell viability [26] [%] | cell viability [27] [%] | cell viability [28] [%] | cell viability [29] [%] | cell viability [30] [%] | cell viability [31] [%] | cell viability [32] [%] | cell viability [33] [%]
1 | COC[C@H]1OC(=O)C2=COC3=C2[C@@]1(C)\C4=C(C5CCC(=O)[C@@]5(C)C[C@H]4OC(C)=O)/C3=O (some centres not stated) | 93.1 | 98.8 | 104 | 11.9 | 108 | 113 | 107 | 107 | 110 | 99.1 | 101 | 83.8 | 99.7 | 98.7 | 12.2 | 98.1 | 93.6 | 97.3 | 101 | 94.3 | 97 | 82 | 85.8 | 90 | 97.6 | 32.6 | 99.8 | 101 | 95.1 | 96.4 | 102 | 93.7 | 77
2 | NC1(Cc2ccc(Cl)cc2)CCN(c2ncnc3[nH]ccc23)CC1 | 105 | 109 | 105 | 108 | 106 | 103 | 102 | 94.7 | 82.3 | 65.8 | 48.3 | 101 | 99.4 | 101 | 99.7 | 91.9 | 97.8 | 84.7 | 73.1 | 53.7 | 40.7 | 28.5 | 103 | 103 | 104 | 102 | 102 | 91.1 | 91 | 79.6 | 66.9 | 47 | 34.5
3 | COC1=CC2=NC=CC(=C2C=C1)OC3=CN=C(NC(=O)C/4=C(C)/N(CC(C)(C)O)N(C4=O)C5=CC=CC=C5)C=C3 | 87.7 | 92.6 | 87.6 | 91.3 | 97.1 | 96.4 | 95 | 91.6 | 76.9 | 85.7 | 74.4 | 89.4 | 87.9 | 89.7 | 92.1 | 92.1 | 91.9 | 89.5 | 90.5 | 70.1 | 90 | 63.6 | 81.1 | 88.7 | 89.8 | 98.5 | 96.6 | 93.2 | 94.9 | 91.4 | 78.8 | 81.9 | 61.2
4 | O=C(NOCC(O)CO)c1cc(Br)c(F)c(F)c1Nc1ccc(I)cc1F (configuration not stated) | 82.9 | 84.2 | 81.7 | 87.8 | 83.8 | 74.8 | 74.4 | 68.2 | 64.2 | 73.9 | 52.3 | 74.6 | 87.6 | 79 | 73.8 | 80.3 | 67.9 | 63.8 | 62.5 | 56.2 | 66.4 | 54.5 | 76.2 | 79.2 | 73.9 | 81.9 | 74.3 | 71.2 | 65.6 | 71.8 | 66.1 | 76.6 | 58.7
